Patent US12295936B2, “Immunomodulating urea azalides” (Zoetis Services LLC, priority 2020, dated 2025)

Tested on: BRD pathogens, M. haemolytica and P. multocida
Test: MIC screening panel of BRD pathogens (antibacterial / non-antibacterial)
Conditions: read-out: antibacterial / non-antibacterial (MIC for the BRD pathogens)

Structure (SMILES)	MIC
CC[C@H]1OC(=O)[C@H](C)[C@@H](O)[C@H](C)[C@@H](O[C@@H]2O[C@H](C)C[C@H](N(C)C(=O)Nc3ccc(Cl)cc3)[C@H]2O)[C@](C)(O)C[C@@H](C)CN[C@H](C)[C@@H](O)[C@]1(C)O [Example A-19, 3-(4-chlorophenyl)-1-((2S,3R,4S,6R)-2-(((2R,3S,4R,5R,8R,10R,11R,12S,13S,14R)-2-ethyl-3,4,10,13-tetrahydroxy-3,5,8,10,12,14-hexamethyl-15-oxo-1-oxa-6-azacyclopentadecan-11-yl)oxy)-3-hydroxy-6-methyltetrahydro-2H-pyran-4-yl)-1-methylurea]	> 64 µg/mL
CC[C@H]1OC(=O)[C@H](C)[C@@H](O)[C@H](C)[C@@H](O[C@@H]2O[C@H](C)C[C@H](N(C)C(=O)Nc3cccc(F)c3)[C@H]2O)[C@](C)(O)C[C@@H](C)CN[C@H](C)[C@@H](O)[C@]1(C)O [Example A-20, 1-((2S,3R,4S,6R)-2-(((2R,3S,4R,5R,8R,10R,11R,12S,13S,14R)-2-ethyl-3,4,10,13-tetrahydroxy-3,5,8,10,12,14-hexamethyl-15-oxo-1-oxa-6-azacyclopentadecan-11-yl)oxy)-3-hydroxy-6-methyltetrahydro-2H-pyran-4-yl)-3-(3-fluorophenyl)-1-methylurea]	> 64 µg/mL
CC[C@H]1OC(=O)[C@H](C)[C@@H](O)[C@H](C)[C@@H](O[C@@H]2O[C@H](C)C[C@H](N(C)C(=O)Nc3cccc(OC)c3)[C@H]2O)[C@](C)(O)C[C@@H](C)CN[C@H](C)[C@@H](O)[C@]1(C)O [Example A-21, 1-((2S,3R,4S,6R)-2-(((2R,3S,4R,5R,8R,10R,11R,12S,13S,14R)-2-ethyl-3,4,10,13-tetrahydroxy-3,5,8,10,12,14-hexamethyl-15-oxo-1-oxa-6-azacyclopentadecan-11-yl)oxy)-3-hydroxy-6-methyltetrahydro-2H-pyran-4-yl)-3-(3-methoxyphenyl)-1-methylurea]	> 64 µg/mL
CC[C@H]1OC(=O)[C@H](C)[C@@H](O)[C@H](C)[C@@H](O[C@@H]2O[C@H](C)C[C@H](N(C)C(=O)Nc3cccc(Cl)c3)[C@H]2O)[C@](C)(O)C[C@@H](C)CN[C@H](C)[C@@H](O)[C@]1(C)O [Example A-23, 3-(3-chlorophenyl)-1-((2S,3R,4S,6R)-2-(((2R,3S,4R,5R,8R,10R,11R,12S,13S,14R)-2-ethyl-3,4,10,13-tetrahydroxy-3,5,8,10,12,14-hexamethyl-15-oxo-1-oxa-6-azacyclopentadecan-11-yl)oxy)-3-hydroxy-6-methyltetrahydro-2H-pyran-4-yl)-1-methylurea]	> 64 µg/mL
CC[C@H]1OC(=O)[C@H](C)[C@@H](O)[C@H](C)[C@@H](O[C@@H]2O[C@H](C)C[C@H](N(C)C(=O)Nc3ccc(C)cc3)[C@H]2O)[C@](C)(O)C[C@@H](C)CN[C@H](C)[C@@H](O)[C@]1(C)O [Example A-24, 1-((2S,3R,4S,6R)-2-(((2R,3S,4R,5R,8R,10R,11R,12S,13S,14R)-2-ethyl-3,4,10,13-tetrahydroxy-3,5,8,10,12,14-hexamethyl-15-oxo-1-oxa-6-azacyclopentadecan-11-yl)oxy)-3-hydroxy-6-methyltetrahydro-2H-pyran-4-yl)-1-methyl-3-(p-tolyl)urea]	> 64 µg/mL
CC[C@H]1OC(=O)[C@H](C)[C@@H](O)[C@H](C)[C@@H](O[C@@H]2O[C@H](C)C[C@H](N(C)C(=O)Nc3cccc(C)c3)[C@H]2O)[C@](C)(O)C[C@@H](C)CN[C@H](C)[C@@H](O)[C@]1(C)O [Example A-25, 1-((2S,3R,4S,6R)-2-(((2R,3S,4R,5R,8R,10R,11R,12S,13S,14R)-2-ethyl-3,4,10,13-tetrahydroxy-3,5,8,10,12,14-hexamethyl-15-oxo-1-oxa-6-azacyclopentadecan-11-yl)oxy)-3-hydroxy-6-methyltetrahydro-2H-pyran-4-yl)-1-methyl-3-(m-tolyl)urea]	> 64 µg/mL
CC[C@H]1OC(=O)[C@H](C)[C@@H](O)[C@H](C)[C@@H](O[C@@H]2O[C@H](C)C[C@H](N(C)C(=O)N(C)c3ccccc3)[C@H]2O)[C@](C)(O)C[C@@H](C)CN[C@H](C)[C@@H](O)[C@]1(C)O [Example A-26, 1-((2S,3R,4S,6R)-2-(((2R,3S,4R,5R,8R,10R,11R,12S,13S,14R)-2-ethyl-3,4,10,13-tetrahydroxy-3,5,8,10,12,14-hexamethyl-15-oxo-1-oxa-6-azacyclopentadecan-11-yl)oxy)-3-hydroxy-6-methyltetrahydro-2H-pyran-4-yl)-1,3-dimethyl-3-phenylurea]	> 64 µg/mL
CC[C@H]1OC(=O)[C@H](C)[C@@H](O[C@H]2C[C@@](C)(OC)[C@@H](O)[C@H](C)O2)[C@H](C)[C@@H](O[C@@H]2O[C@H](C)C[C@H](N(C)C(=O)NC3CCCCC3)[C@H]2O)[C@](C)(O)C[C@@H](C)CN(C)[C@H](C)[C@@H](O)[C@]1(C)O [Example B-10, 3-cyclohexyl-1-((2S,3R,4S,6R)-2-(((2R,3S,4R,5R,8R,10R,11R,12S,13S,14R)-2-ethyl-3,4,10-trihydroxy-13-(((2R,4R,5S,6S)-5-hydroxy-4-methoxy-4,6-dimethyltetrahydro-2H-pyran-2-yl)oxy)-3,5,6,8,10,12,14-heptamethyl-15-oxo-1-oxa-6-azacyclopentadecan-11-yl)oxy)-3-hydroxy-6-methyltetrahydro-2H-pyran-4-yl)-1-methylurea]	> 64 µg/mL
CC[C@H]1OC(=O)[C@H](C)[C@@H](O[C@H]2C[C@@](C)(OC)[C@@H](O)[C@H](C)O2)[C@H](C)[C@@H](O[C@@H]2O[C@H](C)C[C@H](N(C)C(=O)NC(C)(C)C)[C@H]2O)[C@](C)(O)C[C@@H](C)CN(C)[C@H](C)[C@@H](O)[C@]1(C)O [Example B-11, 3-(tert-butyl)-1-((2S,3R,4S,6R)-2-(((2R,3S,4R,5R,8R,10R,11R,12S,13S,14R)-2-ethyl-3,4,10-trihydroxy-13-(((2R,4R,5S,6S)-5-hydroxy-4-methoxy-4,6-dimethyltetrahydro-2H-pyran-2-yl)oxy)-3,5,6,8,10,12,14-heptamethyl-15-oxo-1-oxa-6-azacyclopentadecan-11-yl)oxy)-3-hydroxy-6-methyltetrahydro-2H-pyran-4-yl)-1-methylurea]	> 64 µg/mL
CC[C@H]1OC(=O)[C@H](C)[C@@H](O[C@H]2C[C@@](C)(OC)[C@@H](O)[C@H](C)O2)[C@H](C)[C@@H](O[C@@H]2O[C@H](C)C[C@H](N(C)C(=O)Nc3ccc(C#N)cc3)[C@H]2O)[C@](C)(O)C[C@@H](C)CN(C)[C@H](C)[C@@H](O)[C@]1(C)O [Example B-12, 3-(4-cyanophenyl)-1-((2S,3R,4S,6R)-2-(((2R,3S,4R,5R,8R,10R,11R,12S,13S,14R)-2-ethyl-3,4,10-trihydroxy-13-(((2R,4R,5S,6S)-5-hydroxy-4-methoxy-4,6-dimethyltetrahydro-2H-pyran-2-yl)oxy)-3,5,6,8,10,12,14-heptamethyl-15-oxo-1-oxa-6-azacyclopentadecan-11-yl)oxy)-3-hydroxy-6-methyltetrahydro-2H-pyran-4-yl)-1-methylurea]	> 64 µg/mL
CCCN1C[C@H](C)C[C@@](C)(O)[C@H](O[C@@H]2O[C@H](C)C[C@H](N(C)C(=O)N(C)c3ccc(C(F)(F)F)cc3)[C@H]2O)[C@@H](C)[C@H](O[C@H]2C[C@@](C)(OC)[C@@H](O)[C@H](C)O2)[C@@H](C)C(=O)O[C@H](CC)[C@@](C)(O)[C@H](O)[C@H]1C [Example B-14, 1-((2S,3R,4S,6R)-2-(((2R,3S,4R,5R,8R,10R,11R,12S,13S,14R)-2-ethyl-3,4,10-trihydroxy-13-(((2R,4R,5S,6S)-5-hydroxy-4-methoxy-4,6-dimethyltetrahydro-2H-pyran-2-yl)oxy)-3,5,8,10,12,14-hexamethyl-15-oxo-6-propyl-1-oxa-6-azacyclopentadecan-11-yl)oxy)-3-hydroxy-6-methyltetrahydro-2H-pyran-4-yl)-1,3-dimethyl-3-(4-(trifluoromethyl)phenyl)urea]	> 64 µg/mL
CCCN1C[C@H](C)C[C@@](C)(O)[C@H](O[C@@H]2O[C@H](C)C[C@H](N(C)C(=O)N(C)c3ccccc3)[C@H]2O)[C@@H](C)[C@H](O[C@H]2C[C@@](C)(OC)[C@@H](O)[C@H](C)O2)[C@@H](C)C(=O)O[C@H](CC)[C@@](C)(O)[C@H](O)[C@H]1C [Example B-15, 1-((2S,3R,4S,6R)-2-(((2R,3S,4R,5R,8R,10R,11R,12S,13S,14R)-2-ethyl-3,4,10-trihydroxy-13-(((2R,4R,5S,6S)-5-hydroxy-4-methoxy-4,6-dimethyltetrahydro-2H-pyran-2-yl)oxy)-3,5,8,10,12,14-hexamethyl-15-oxo-6-propyl-1-oxa-6-azacyclopentadecan-11-yl)oxy)-3-hydroxy-6-methyltetrahydro-2H-pyran-4-yl)-1,3-dimethyl-3-phenylurea]	> 64 µg/mL
CCOC[C@]1(O)[C@H](C)O[C@@H](O[C@H]2[C@H](C)[C@@H](O[C@@H]3O[C@H](C)C[C@H](N(C)C(=O)Nc4ccccc4)[C@H]3O)[C@](C)(O)C[C@@H](C)CN[C@H](C)[C@@H](O)[C@](C)(O)[C@@H](CC)OC(=O)[C@@H]2C)C[C@@]1(C)OC [Example C-1, 1-((2S,3R,4S,6R)-2-(((2R,3S,4R,5R,8R,10R,11R,12S,13S,14R)-13-(((2R,4R,5S,6S)-5-(ethoxymethyl)-5-hydroxy-4-methoxy-4,6-dimethyltetrahydro-2H-pyran-2-yl)oxy)-2-ethyl-3,4,10-trihydroxy-3,5,8,10,12,14-hexamethyl-15-oxo-1-oxa-6-azacyclopentadecan-11-yl)oxy)-3-hydroxy-6-methyltetrahydro-2H-pyran-4-yl)-1-methyl-3-phenylurea]	> 64 µg/mL
CCOC[C@]1(O)[C@H](C)O[C@@H](O[C@H]2[C@H](C)[C@@H](O[C@@H]3O[C@H](C)C[C@H](N(C)C(=O)N(C)c4ccc(C(F)(F)F)cc4)[C@H]3O)[C@](C)(O)C[C@@H](C)CN[C@H](C)[C@@H](O)[C@](C)(O)[C@@H](CC)OC(=O)[C@@H]2C)C[C@@]1(C)OC [Example C-3, 1-((2S,3R,4S,6R)-2-(((2R,3S,4R,5R,8R,10R,11R,12S,13S,14R)-13-(((2R,4R,5S,6S)-5-(ethoxymethyl)-5-hydroxy-4-methoxy-4,6-dimethyltetrahydro-2H-pyran-2-yl)oxy)-2-ethyl-3,4,10-trihydroxy-3,5,8,10,12,14-hexamethyl-15-oxo-1-oxa-6-azacyclopentadecan-11-yl)oxy)-3-hydroxy-6-methyltetrahydro-2H-pyran-4-yl)-1,3-dimethyl-3-(4-(trifluoromethyl)phenyl)urea]	> 64 µg/mL
